Laboratory results: patent US11802120B2, “Fused cyclic urea derivatives as CRHR2 antagonist” (RaQualia Pharma Inc., priority 2018, dated 2023)
pIC50: −log10 of the molar value.

biological target: T1, human CRHR2-alpha (Homo sapiens, UniProt Q13324); assay: cAMP functional assay for human CRHR2 (LANCE Ultra cAMP, TR-FRET); type: cell-based; conditions: CHO-K1 cells expressing human CRHR2-alpha, agonist human urocortin2 at EC80, cAMP; read-out: IC50 against CRHR2
T1 sequence (Q13324 1-411): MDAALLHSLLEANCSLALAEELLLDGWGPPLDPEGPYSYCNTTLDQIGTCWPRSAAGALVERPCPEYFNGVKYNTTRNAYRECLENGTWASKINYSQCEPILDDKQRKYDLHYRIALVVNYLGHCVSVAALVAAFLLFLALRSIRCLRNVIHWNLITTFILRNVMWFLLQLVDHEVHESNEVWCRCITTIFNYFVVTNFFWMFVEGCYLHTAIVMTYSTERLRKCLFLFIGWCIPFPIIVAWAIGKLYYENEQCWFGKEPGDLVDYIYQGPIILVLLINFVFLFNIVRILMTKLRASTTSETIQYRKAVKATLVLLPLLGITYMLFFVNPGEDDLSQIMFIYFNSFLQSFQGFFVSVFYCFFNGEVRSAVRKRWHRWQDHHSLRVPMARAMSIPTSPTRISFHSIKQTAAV
Outline: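 CHO-K1 cells stably expressing each receptor, serum-starved and cryopreserved, were preincubated with compound 30 min at 25° C in HBSS buffer with 0.5 mM IBMX, pH 7.4, then stimulated 30 min with EC80 agonist (urocortin2 for CRHR2, CRF for CRHR1). cAMP read by TR-FRET; IC50 from percent-inhibition curves.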

| SMILES | pIC50 |
| --- | --- |
| CNc1ccc(-n2c(=O)n(C[C@H]3CC[C@H](NC(=O)c4cc(Cl)cnc4C)CC3)c3ccccc32)cc1 [Example 646, 5-chloro-2-methyl-N-((1r,4r)-4-((3-(4-(methylamino)phenyl)-2-oxo-2,3-dihydro-1H-benzo[d]imidazol-1-yl)methyl)cyclohexyl)nicotinamide] | > 6.52 |
| Cc1ncc(Cl)cc1C(=O)N[C@H]1CC[C@H](Cn2c(=O)n(-c3ccc(N(C)C)cn3)c3ccccc32)CC1 [Example 647, 5-chloro-N-((1r,4r)-4-((3-(5-(dimethylamino)pyridin-2-yl)-2-oxo-2,3-dihydro-1H-benzo [d]imidazol-1-yl)methyl)cyclo-hexyl)-2-methylnicotinamide] | > 6.52 |
| CN(C)c1ccc(-n2c(=O)n(C[C@H]3CC[C@H](NC(=O)c4cc(Cl)cnc4C(F)F)CC3)c3ccccc32)nc1 [Example 648, 5-chloro-2-(difluoromethyl)-N-((1r,4r)-4-((3-(5-(dimethyl-amino)pyridin-2-yl)-2-oxo-2,3-dihydro-1H-benzo[d]imidazol-1-yl)methyl)cyclo-hexyl)nicotinamide] | > 6.52 |
| Cc1ncc(Cl)cc1C(=O)N[C@H]1CC[C@H](Cn2c(=O)n(-c3ccnc(N(C)C)c3)c3ccccc32)CC1 [Example 649, 5-chloro-N-((1r,4r)-4-((3-(2-(dimethylamino)pyridin-4-yl)-2-oxo-2,3-dihydro-1H-benzo[d]imidazol-1-yl)methyl)cyclohexyl)-2-methyl-nicotinamide] | > 6.52 |
| CN(C)c1cc(-n2c(=O)n(C[C@H]3CC[C@H](NC(=O)c4cc(Cl)cnc4C(F)F)CC3)c3ccccc32)ccn1 [Example 650, 5-chloro-2-(difluoromethyl)-N-((1r,4r)-4-((3-(2-(dimethyl-amino)pyridin-4-yl)-2-oxo-2,3-dihydro-1H-benzo[d]imidazol-1-yl)methyl)cyclo-hexyl)nicotinamide] | > 6.52 |
| Cc1ncc(Cl)cc1C(=O)N[C@H]1CC[C@H](Cn2c(=O)n(-c3cccc(-c4ccn(C)n4)c3)c3ccccc32)CC1 [Example 651, 5-chloro-2-methyl-N-((1r,4r)-4-((3-(3-(1-methyl-1H-pyrazol-3-yl)phenyl)-2-oxo-2,3-dihydro-1H-benzo [d]imidazol-1-yl)methyl)cyclohexyl)nicotinamide] | > 6.52 |
| Cc1ncc(Cl)cc1C(=O)N[C@H]1CC[C@H](Cn2c(=O)n(-c3cncc(-c4ccn(C)n4)c3)c3ccccc32)CC1 [Example 652, 5-chloro-2-methyl-N-((1r,4r)-4-((3-(5-(1-methyl-1H-pyrazol-3-yl)pyridin-3-yl)-2-oxo-2,3-dihydro-1H-benzo[d]imidazol-1-yl)methyl)cyclohexyl)nicotinamide] | > 6.52 |
| Cc1ncc(Cl)cc1C(=O)N[C@H]1CC[C@H](Cn2c(=O)n(-c3ccc(-c4ccn(C)n4)nc3)c3ccccc32)CC1 [Example 654, 5-chloro-2-methyl-N-((1r,4r)-4-((3-(6-(1-methyl-1H-pyrazol-3-yl)pyridin-3-yl)-2-oxo-2,3-dihydro-1H-benzo[d]imidazol-1-yl)methyl)cyclohexyl)nico-tinamide] | > 6.52 |
| Cc1ncc(Cl)cc1C(=O)N[C@H]1CC[C@H](Cn2c(=O)n(-c3ccnc(-c4ccn(C)n4)c3)c3ccccc32)CC1 [Example 655, 5-chloro-2-methyl-N-((1r,4r)-4-((3-(2-(1-methyl-1H-pyrazol-3-yl)pyridin-4-yl)-2-oxo-2,3-dihydro-1H-benzo[d]imidazol-1-yl)methyl)cyclohexyl)nicotinamide] | > 6.52 |
| Cc1ncc(Cl)cc1C(=O)N[C@H]1CC[C@H](Cn2c(=O)n(-c3cccc(-c4cnn(C)c4)n3)c3ccccc32)CC1 [Example 656, 5-chloro-2-methyl-N-((1r,4r)-4-((3-(6-(1-methyl-1H-pyrazol-4-yl)pyridin-2-yl)-2-oxo-2,3-dihydro-1H-benzo[d]imidazol-1-yl)methyl)cyclohexyl)nicotinamide] | > 6.52 |

Second part, the compound after the results:

| pIC50 | SMILES |
| --- | --- |
| > 6.52 | Cn1cc(-c2cccc(-n3c(=O)n(C[C@H]4CC[C@H](NC(=O)c5cc(Cl)cnc5C(F)F)CC4)c4ccccc43)n2)cn1 [Example 657, 5-chloro-2-(difluoromethyl)-N-((1r,4r)-4-((3-(6-(1-methyl-1H-pyrazol-4-yl)pyridin-2-yl)-2-oxo-2,3-dihydro-1H-benzo[d]imidazol-1-yl)methyl)cyclohexyl)nicotinamide] |
| > 6.52 | NC(=O)Nc1ccc(-n2c(=O)n(C[C@H]3CC[C@H](NC(=O)c4cc(Cl)cnc4C(F)F)CC3)c3ccccc32)cn1 [Example 658, 5-chloro-2-(difluoromethyl)-N-((1r,4r)-4-((2-oxo-3-(6-ureidopyridin-3-yl)-2,3-dihydro-1H-benzo[d]imidazol-1-yl)methyl)cyclohexyl)nicotinamide] |
| > 6.52 | CN(C)c1cccc(-n2c(=O)n(C[C@H]3CC[C@H](NC(=O)c4cc(Cl)cnc4C(F)F)CC3)c3ccccc32)n1 [Example 659, 5-chloro-2-(difluoromethyl)-N-((1r,4r)-4-((3-(6-(dimethyl-amino)pyridin-2-yl)-2-oxo-2,3-dihydro-1H-benzo[d]imidazol-1-yl)methyl)cyclo-hexyl)nicotinamide] |
| > 6.52 | CNc1ccc(-n2c(=O)n(C[C@H]3CC[C@H](NC(=O)c4cc(Cl)cnc4C(F)F)CC3)c3ccccc32)nc1 [Example 660, 5-chloro-2-(difluoromethyl)-N-((1r,4r)-4-((3-(5-(methylamino)pyridin-2-yl)-2-oxo-2,3-dihydro-1H-benzo[d]imidazol-1-yl)methyl)cyclohexyl)nicotinamide] |
| > 6.52 | CNc1cc(-n2c(=O)n(C[C@H]3CC[C@H](NC(=O)c4cc(Cl)cnc4C(F)F)CC3)c3ccccc32)ccn1 [Example 661, 5-chloro-2-(difluoromethyl)-N-((1r,4r)-4-((3-(2-(methylamino)pyridin-4-yl)-2-oxo-2,3-dihydro-1H-benzo[d]imidazol-1-yl)methyl)cyclohexyl)nicotinamide] |
| > 6.52 | CNc1cccc(-n2c(=O)n(C[C@H]3CC[C@H](NC(=O)c4cc(Cl)cnc4C(F)F)CC3)c3ccccc32)n1 [Example 662, 5-chloro-2-(difluoromethyl)-N-((1r,4r)-4-((3-(6-(methylamino)pyridin-2-yl)-2-oxo-2,3-dihydro-1H-benzo[d]imidazol-1-yl)methyl)cyclohexyl)nicotinamide] |
| > 6.52 | CN(C)c1cc(-n2c(=O)n(C[C@H]3CC[C@H](NC(=O)c4cc(Cl)cnc4C(F)(F)F)CC3)c3ccccc32)ccn1 [Example 663, 5-chloro-N-((1r,4r)-4-((3-(2-(dimethylamino)pyridin-4-yl)-2-oxo-2,3-dihydro-1H-benzo[d]imidazol-1-yl)methyl)cyclohexyl)-2-(trifluoromethyl)nicotinamide] |
| > 6.52 | COCCNc1ccc(-n2c(=O)n(C[C@H]3CC[C@H](NC(=O)c4cc(Cl)cnc4C(F)(F)F)CC3)c3ccccc32)cn1 [Example 664, 5-chloro-N-((1r,4r)-4-((3-(6-((2-methoxyethyl)amino)pyridin-3-yl)-2-oxo-2,3-dihydro-1H-benzo[d]imidazol-1-yl)methyl)cyclohexyl)-2-(trifluoromethyl)nicotinamide] |
| > 6.52 | CNc1cc(-n2c(=O)n(C[C@H]3CC[C@H](NC(=O)c4cc(Cl)cnc4C(F)(F)F)CC3)c3ccccc32)ccn1 [Example 665, 5-chloro-N-((1r,4r)-4-((3-(2-(methylamino)pyridin-4-yl)-2-oxo-2,3-dihydro-1H-benzo[d]imidazol-1-yl)methyl)cyclohexyl)-2-(trifluoromethyl)nicotinamide] |
| > 6.52 | O=C(N[C@H]1CC[C@H](Cn2c(=O)n(-c3cnc4c(ccn4CCO)c3)c3ccccc32)CC1)c1cc(Cl)cnc1C(F)F [Example 666, 5-chloro-2-(difluoromethyl)-N-((1r,4r)-4-((3-(1-(2-hydroxyethyl)-1H-pyrrolo[2,3-b]pyridin-5-yl)-2-oxo-2,3-dihydro-1H-benzo[d]imidazol-1-yl)methyl)cyclohexyl)nicotinamide] |
| > 6.52 | Cc1ncc(Cl)cc1C(=O)N[C@H]1CC[C@H](Cn2c(=O)n(-c3ccc(-c4c[nH]cn4)cc3)c3ccccc32)CC1 [Example 667, N-((1r,4r)-4-((3-(4-(1H-imidazol-4-yl)phenyl)-2-oxo-2,3-dihydro-1H-benzo[d]imidazol-1-yl)methyl)cyclohexyl)-5-chloro-2-methylnicotinamide] |
| > 6.52 | CNc1ccc(-n2c(=O)n(C[C@H]3CC[C@H](NC(=O)c4cc(Cl)cnc4C)CC3)c3c(F)cccc32)cn1 [Example 668, 5-chloro-N-((1r,4r)-4-((7-fluoro-3-(6-(methylamino)pyridin-3-yl)-2-oxo-2,3-dihydro-1H-benzo[d]imidazol-1-yl)methyl)cyclo-hexyl)-2-methylnicotinamide] |
| > 6.52 | CC(C)(O)C(=O)Nc1ccc(-n2c(=O)n(C[C@H]3CC[C@H](NC(=O)c4cc(Cl)cnc4C(F)F)CC3)c3ccccc32)cn1 [Example 669, 5-chloro-2-(difluoromethyl)-N-((1r,4r)-4-((3-(6-(2-hydroxy-2-methylpropana-mido)pyridin-3-yl)-2-oxo-2,3-dihydro-1H-benzo[d]imidazol-1-yl)methyl)cyclo-hexyl)nicotinamide] |
